According to publication PMC8194939, “Investigation on the characteristics and mechanisms of ACE inhibitory peptides by a thorough analysis of all 8000 tripeptides via binding free energy calculation” (Food Science & Nutrition, 2021):
Where a SMILES comes first, the peptide text is derived from it.

The compounds below were run against T1, ACE from rabbit lung (Oryctolagus cuniculus, UniProt P12822) (assay: Assay of ACE inhibitory activity (HHL substrate, RP-HPLC of hippuric acid)).
T1 sequence (P12822 34-1310): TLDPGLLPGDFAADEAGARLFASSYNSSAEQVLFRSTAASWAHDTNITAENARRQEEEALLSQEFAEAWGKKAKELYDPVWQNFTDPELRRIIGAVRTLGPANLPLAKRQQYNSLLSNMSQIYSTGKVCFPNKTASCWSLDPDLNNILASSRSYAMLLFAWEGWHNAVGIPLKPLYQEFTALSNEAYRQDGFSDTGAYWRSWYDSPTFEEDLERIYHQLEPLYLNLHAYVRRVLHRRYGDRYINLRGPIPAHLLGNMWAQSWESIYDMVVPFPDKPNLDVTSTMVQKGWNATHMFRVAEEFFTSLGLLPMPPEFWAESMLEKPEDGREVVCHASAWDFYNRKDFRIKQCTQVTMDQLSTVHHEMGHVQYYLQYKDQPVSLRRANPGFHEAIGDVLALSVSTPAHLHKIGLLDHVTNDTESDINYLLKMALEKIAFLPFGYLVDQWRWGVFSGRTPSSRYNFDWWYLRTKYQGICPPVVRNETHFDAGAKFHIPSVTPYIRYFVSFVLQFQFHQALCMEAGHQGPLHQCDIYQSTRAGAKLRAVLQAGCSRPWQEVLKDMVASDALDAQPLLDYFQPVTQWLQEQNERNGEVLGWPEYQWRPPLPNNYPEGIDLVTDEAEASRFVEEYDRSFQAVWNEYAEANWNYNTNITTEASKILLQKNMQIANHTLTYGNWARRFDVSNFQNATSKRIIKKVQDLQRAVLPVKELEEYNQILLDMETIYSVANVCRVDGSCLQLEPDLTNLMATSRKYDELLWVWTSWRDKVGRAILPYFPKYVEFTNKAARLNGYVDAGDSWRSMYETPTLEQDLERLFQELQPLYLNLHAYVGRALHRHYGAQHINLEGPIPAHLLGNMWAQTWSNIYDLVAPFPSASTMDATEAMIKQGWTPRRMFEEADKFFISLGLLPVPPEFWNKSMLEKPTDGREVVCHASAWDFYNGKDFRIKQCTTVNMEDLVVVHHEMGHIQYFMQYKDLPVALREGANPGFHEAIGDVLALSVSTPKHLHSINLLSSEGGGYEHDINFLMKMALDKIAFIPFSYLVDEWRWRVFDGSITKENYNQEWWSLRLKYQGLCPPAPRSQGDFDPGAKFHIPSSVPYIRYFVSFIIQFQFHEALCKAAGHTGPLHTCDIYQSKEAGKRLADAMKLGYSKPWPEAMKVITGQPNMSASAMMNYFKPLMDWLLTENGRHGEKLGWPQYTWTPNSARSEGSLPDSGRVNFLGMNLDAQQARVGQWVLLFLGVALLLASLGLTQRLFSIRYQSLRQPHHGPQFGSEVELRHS
Experimental: ACE from rabbit lung and hippuryl‐histidyl‐leucine (HHL) were sourced from Sigma Chemical Co. (St. Louis).
Briefly, 20 μL of inhibitory peptides at different concentrations and 20 μL of 5 mM HHL solution were preincubated at 37°C for 5 min in 90 μL of buffer A (50 mM HEPES, 300 mM NaCl, pH 8.3). Next, 20 μL of ACE solution (0.04 U/mL) was added to trigger the reaction. After incubation at 37°C for 1 hr, the reaction was terminated by adding 50 μL of 1 M HCl. Next, 10 μL of the mixture was separated through RP‐HPLC (e2679, Waters) using an XBridge C18 column (4.6 mm × 150 mm, 5 μm, Waters). […] Hippuric acid was monitored at 228 nm. Triplicate tests were performed for each sample. […] For comparative purposes, the IC50 value of captopril was obtained using this methodology.

| SMILES | IC50 [µM] |
| --- | --- |
| N[C@@H](CC(=O)O)C(=O)NCC(=O)NCC(=O)O [DGG] (H-Asp-Gly-Gly-OH) | > 5000 |
| NCC(=O)NCC(=O)NCC(=O)O [GGG] (H-Gly-Gly-Gly-OH) | > 5000 |
| NCCCC[C@H](N)C(=O)N[C@@H](Cc1ccc(O)cc1)C(=O)N[C@@H](Cc1ccc(O)cc1)C(=O)O [KYY] (H-Lys-Tyr-Tyr-OH) | 20.5 ± 4.05 |
| NC(=O)CC[C@H](NC(=O)[C@@H](N)Cc1c[nH]c2ccccc12)C(=O)N[C@@H](Cc1c[nH]c2ccccc12)C(=O)O [WQW] (H-Trp-Gln-Trp-OH) | 11.8 ± 1.79 |
| N=C(N)NCCC[C@H](NC(=O)[C@@H](N)Cc1c[nH]c2ccccc12)C(=O)N[C@@H](Cc1ccccc1)C(=O)O [WRF] (H-Trp-Arg-Phe-OH) | 21.8 ± 2.5 |
| N=C(N)NCCC[C@H](NC(=O)[C@@H](N)Cc1c[nH]c2ccccc12)C(=O)N[C@@H](Cc1ccc(O)cc1)C(=O)O [WRY] (H-Trp-Arg-Tyr-OH) | 5.86 ± 0.73 |
| N[C@@H](Cc1c[nH]c2ccccc12)C(=O)N[C@@H](Cc1c[nH]c2ccccc12)C(=O)N[C@@H](Cc1c[nH]c2ccccc12)C(=O)O [WWW] (H-Trp-Trp-Trp-OH) | 7.3 ± 2.11 |
